Results reported in the NIST ThermoML archive (doi:10.1016/j.fluid.2014.06.018).
± gives the expanded uncertainty stated by the source.

Settings: 100 kPa, Liquid, capillary rise

| interfacial tension (313.15 K) [mN/m] | interfacial tension (324.15 K) [mN/m] | interfacial tension (343.15 K) [mN/m] | interfacial tension (298.15 K) [mN/m] | interfacial tension (302.15 K) [mN/m] | interfacial tension (333.15 K) [mN/m] | SMILES | further results |
| --- | --- | --- | --- | --- | --- | --- | --- |
| 50 ± 0.6 | 49.2 ± 0.6 | 47.6 ± 0.4 | – | – | – | CCCCCCCCC [nonane] + O | interfacial tension (303.15 K): 50.9 ± 0.6 mN/m; interfacial tension (333.65 K): 48.4 ± 0.4 mN/m |
| – | – | 47.1 ± 0.4 | – | – | 48 ± 0.4 | CCCCCCCC [octane] + O | interfacial tension (312.65 K): 50.5 ± 0.6 mN/m; interfacial tension (323.65 K): 49.7 ± 0.6 mN/m; interfacial tension (330.65 K): 48.8 ± 0.6 mN/m |

More lines, now with the values behind:

| SMILES | interfacial tension (313.15 K) [mN/m] | interfacial tension (324.15 K) [mN/m] | interfacial tension (343.15 K) [mN/m] | interfacial tension (298.15 K) [mN/m] | interfacial tension (302.15 K) [mN/m] | interfacial tension (333.15 K) [mN/m] | further results |
| --- | --- | --- | --- | --- | --- | --- | --- |
| CCCCCCC [heptane] + O | – | – | – | 50.6 ± 0.6 | – | – | interfacial tension (304.15 K): 50.1 ± 0.6 mN/m; interfacial tension (314.15 K): 49.3 ± 0.6 mN/m; interfacial tension (324.65 K): 48.4 ± 0.4 mN/m; interfacial tension (335.65 K): 47.4 ± 0.4 mN/m |
| CCCCCC [hexane] + O | – | – | 46.2 ± 0.4 | 50 ± 0.6 | 49.7 ± 0.6 | 47 ± 0.4 | interfacial tension (315.65 K): 48.5 ± 0.6 mN/m; interfacial tension (322.15 K): 47.9 ± 0.6 mN/m |
| CCCCCCCO [heptan-1-ol] + O | 7.47 ± 0.08 | – | 7.59 ± 0.08 | – | 7.28 ± 0.08 | 7.64 ± 0.08 | interfacial tension (323.15 K): 7.61 ± 0.08 mN/m |
| CCCCCC(=O)O [hexanoic acid] + O | – | 4.62 ± 0.08 | 3.48 ± 0.08 | – | – | 4.11 ± 0.09 | interfacial tension (304.65 K): 5.57 ± 0.09 mN/m; interfacial tension (313.65 K): 5.19 ± 0.08 mN/m |
